{"source": "patent US12577522B2", "about": "“System and method for screening therapeutic agents” (Carnegie Mellon University, priority 2020, dated 2026)", "key": {"[1]": {"system": "MDA-MB-231 human breast cancer cell line mouse xenografts (tumor fragments)", "test": "2D 96-well plate control: tumor fragment drug screening, live/dead viability and COMPUSYN combination index", "assay_type": "cell-based", "settings": "2D 96-well control, three days, drug refreshed every 12 h"}, "[2]": {"system": "MDA-MB-231 human breast cancer cell line mouse xenografts (tumor fragments)", "test": "3D ECM microsystem (collagen tumor-on-a-chip): tumor fragment drug screening, live/dead viability and COMPUSYN combination index", "assay_type": "cell-based", "settings": "three days"}, "[3]": {"test": "Drug gradient characterization in 3D collagen scaffold by confocal microscopy", "assay_type": "physicochemical", "settings": "confocal fluorescence; doxorubicin after 24 h, left to right channel"}, "MDA-MB-231 cell": {"system": "MDA-MB-231 cell", "settings": "previously reported; cited from earlier work"}}, "data": [{"molecule": "COc1cccc2c1C(=O)c1c(O)c3c(c(O)c1C2=O)C[C@@](O)(C(=O)CO)C[C@@H]3O[C@H]1C[C@H](N)[C@H](O)[C@H](C)O1", "note": "[doxorubicin]", "values": [{"measurement": "tumor viability (live/dead staining)", "setting": "[1]", "value": "dose-dependent decrease in viability"}, {"measurement": "tumor viability (live/dead staining)", "setting": "[2]; 3D ECM microsystem, drug replenished every 12 h", "value": "dose-dependent decrease in viability"}, {"measurement": "viability in 3D ECM microsystem relative to 2D controls", "setting": "[2]; doses in 2D matched to 48 h simulated concentration", "value": "lower viability compared to 2D controls"}, {"measurement": "diffusion profile in 3D collagen scaffold", "setting": "[3]", "value": "approximately linear concentration profile"}, {"measurement": "median effect dose (Dm)", "setting": "MDA-MB-231 cell", "value": "much lower than 4-hydroxycyclophosphamide"}]}]}
